Source: PubChem BioAssay AID2060893 (Molecular Pharmacology Branch, DTP, NCI, 2025)
Blank lines part the entries; values can stand above or below the molecule they belong to.

Test system: K86415-001-R-J1-PDC complex spheroids, viability
Assay: Anticancer human tumor K86415-001-R-J1-PDC patient-derived lung adenocarcinoma cell line growth inhibition [RAS]
Conditions: for IC50: curve of first compound; for viability, T/C: stronger effect = lower value
Source text: RAS pathway inhibitors in Combinations in Complex Spheroids
A high-throughput screen of multi-cell type tumor spheroids was designed to identify active combinations of RAS pathway inhibitors and targeted small molecules. Complex spheroids include a stromal component modeled by human endothelial cells (HUVEC) and fibroblasts modeled by human mesenchymal stem cells (MSCs). The concentration ranges selected for each drug and investigational agent were based upon clinically achievable concentrations if the clinical Cmax of the agent was known.
Compounds. The drugs and investigational agents: abemaciclib (NSC768073), cobimetinib (NSC768068), divarasib (GDC6063, NSC841802), docetaxel (NSC628503), GDC-1971 (RLY-1971, NSC841576), gemcitabine (NSC613327), inavolisib (NSC800729), ipatasertib (NSC767898), KB-0742 (NSC834161), MRTX-1133 (NSC836407), osimertinib (NSC779217), RMC-4630 (NSC839698), RMC-6236 (NSC851965), RMC-6291 (NSC852671), Ro-3306 (NSC812927), sapanisertib (NSC764658), SN-38 (NSC673596), staurosporine (NSC755774), SY5609 (NSC837396), and tovorafenib (DAY101, NSC766906), were obtained from the National Cancer Institute (NCI) Developmental Therapeutics Program Chemical Repository. The FDA-approved anticancer drug set is available from the NCI Developmental Therapeutics Program. […] The stock solutions were prepared in dimethyl sulfoxide (DMSO, Sigma-Aldrich, St. Louis, MO, cat. D2650) at 800-fold the tested concentration and stored at -70 degrees C prior to their use. All drugs and investigational agents were tested over a range starting from a high concentration at or near the clinical Cmax and decreasing in half-log increments. If the clinical Cmax for an agent had not been determined, the highest concentration tested was 10 microM.
Cell Culture. All cells were maintained in an incubator at 37 degrees C and 5% CO2 with 95% humidity. The PDC lines were cultured according to standard operating procedures established by the NCI PDMR. All PDCs were thawed and cultured in Matrigel-coated flasks prepared with a working solution of 1X Ham's F-12 nutrient mix, without supplementation (Invitrogen, Waltham, MA, cat. 11765054), 100 U/mL penicillin-streptomycin (Invitrogen, cat. 15140122), and 2.5% Matrigel (Corning Inc., Corning, NY, cat. 354248) for the first three passages. The 362531-283-R-J2-PDC and 782815-120-R-J1-PDC lines were cultured in 6C/Colon 1B media, which includes advanced DMEM/F-12 (Thermo Fisher Scientific, cat. 12634028), 10 mM HEPES (Thermo Fisher Scientific, cat. 15630080), 1X GlutaMAX supplement (Thermo Fisher Scientific, cat. 35050061), 0.1 mg/mL primocin (InvivoGen, San Diego, CA, cat. ant-pm-2), 10% defined fetal bovine serum, heat inactivated (HyClone Laboratories Inc., Logan, UT, cat. SH30070.03HI), 50% L-WRN conditioned media (ATCC, cat. CRL-3276), 1.25 mM N-Acetyl-L-cysteine (Sigma-Aldrich, cat. A9165), 10 mM nicotinamide (Sigma-Aldrich, cat. N0636), 1X B-27 supplement (Thermo Fisher Scientific, cat. 17504044), 1X N-2 supplement (Thermo Fisher Scientific, cat. 17502048), 50 ng/mL human EGF (Thermo Fisher Scientific, cat. PHG0311), and 10 microM Y-27632 dihydrochloride (Tocris Bioscience, cat. 1254). The K12877-001-R-J1-PDC line was cultured in 6I media, which includes all 6C/Colon 1B media plus 10 ng/mL human FGF-10 (PeproTech, cat. 100-26), 1 ng/mL human FGF-2 (PeproTech, cat. 100-18B), 1 µM prostaglandin E2 (Tocris Bioscience, cat. 2296), […] hydrocortisone (Sigma-Aldrich, cat. H4001), and […] bovine insulin (Sigma-Aldrich, cat. I6634). The K86415-001-R-J1-PDC line was cultured in 6D media, which includes all 6C/Colon 1B media components minus the L-WRN conditioned media. The 485176-168-R4-J1-PDC was cultured in PANC media, which includes all 6C/Colon 1B media plus 100 ng/mL human FGF-10 (PeproTech, cat. 100-26), 500 nM SB-431542 (Selleckchem, cat. S1067), and 10 nM gastrin (Tocris Bioscience, cat. 3006). […]

[1] = second compound 0.0316 µM, first compound 0.0316 µM
[2] = second compound 0.0316 µM, first compound 0.1 µM
[3] = second compound 0.0316 µM, first compound 0.316 µM
[4] = second compound 0.0316 µM, first compound 1 µM
[5] = second compound 0.0316 µM, first compound 3.16 µM
[6] = second compound 0.0316 µM, first compound 10 µM
[7] = second compound 0.1 µM, first compound 0.0316 µM
[8] = second compound 0.1 µM, first compound 0.1 µM
[9] = second compound 0.1 µM, first compound 0.316 µM
[10] = second compound 0.1 µM, first compound 1 µM
[11] = second compound 0.1 µM, first compound 3.16 µM
[12] = second compound 0.1 µM, first compound 10 µM
[13] = second compound 0.316 µM, first compound 0.0316 µM
[14] = second compound 0.316 µM, first compound 0.1 µM
[15] = second compound 0.316 µM, first compound 0.316 µM
[16] = second compound 0.316 µM, first compound 1 µM
[17] = second compound 0.316 µM, first compound 3.16 µM
[18] = second compound 0.316 µM, first compound 10 µM
[19] = second compound 1 µM, first compound 0.0316 µM
[20] = second compound 1 µM, first compound 0.1 µM
[21] = second compound 1 µM, first compound 0.316 µM
[22] = second compound 1 µM, first compound 1 µM
[23] = second compound 1 µM, first compound 3.16 µM
[24] = second compound 1 µM, first compound 10 µM
[25] = second compound 3.16 µM, first compound 0.0316 µM
[26] = second compound 3.16 µM, first compound 0.1 µM
[27] = second compound 3.16 µM, first compound 0.316 µM
[28] = second compound 3.16 µM, first compound 1 µM
[29] = second compound 3.16 µM, first compound 3.16 µM
[30] = second compound 3.16 µM, first compound 10 µM
[31] = second compound 10 µM, first compound 0.0316 µM
[32] = second compound 10 µM, first compound 0.1 µM
[33] = second compound 10 µM, first compound 0.316 µM
[34] = second compound 10 µM, first compound 1 µM
[35] = second compound 10 µM, first compound 3.16 µM
[36] = second compound 10 µM, first compound 10 µM
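Also: spheroids exposed to agents for seven days before readout.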

IC50 (second compound 0.0316 µM): 7490 nM
IC50 (second compound 0.1 µM): 7290 nM
IC50 (second compound 0.316 µM): 7560 nM
IC50 (second compound 1 µM): 4250 nM
IC50 (second compound 3.16 µM): < 31.6 nM
IC50 (second compound 10 µM): < 31.6 nM
SMILES: CC(C)NCC(C(=O)N1CCN(c2ncnc3c2C(C)CC3O)CC1)c1ccc(Cl)cc1 (stereo unspecified) + C#Cc1c(F)ccc2cc(O)cc(-c3ncc4c(N5CC6CCC(C5)N6)nc(OCC56CCCN5CC(F)C6)nc4c3F)c12
viability, T/C [1]: 109%
viability, T/C [2]: 106%
viability, T/C [3]: 106%
viability, T/C [4]: 89.6%
viability, T/C [5]: 72.3%
viability, T/C [6]: 42.6%
viability, T/C [7]: 113%
viability, T/C [8]: 103%
viability, T/C [9]: 113%
viability, T/C [10]: 90.4%
viability, T/C [11]: 68.7%
viability, T/C [12]: 43.1%
viability, T/C [13]: 97%
viability, T/C [14]: 94.1%
viability, T/C [15]: 90.9%
viability, T/C [16]: 84.7%
viability, T/C [17]: 64.4%
viability, T/C [18]: 45.3%
viability, T/C [19]: 74.4%
viability, T/C [20]: 62%
viability, T/C [21]: 56.2%
viability, T/C [22]: 65.1%
viability, T/C [23]: 54.8%
viability, T/C [24]: 39.3%
viability, T/C [25]: 35.2%
viability, T/C [26]: 38.2%
viability, T/C [27]: 26.3%
viability, T/C [28]: 25.8%
viability, T/C [29]: 38.4%
viability, T/C [30]: 25.6%
viability, T/C [31]: 18.7%
viability, T/C [32]: 15.8%
viability, T/C [33]: 16.4%
viability, T/C [34]: 24.7%
viability, T/C [35]: 16.9%
viability, T/C [36]: 5.88%

IC50 (second compound 0.0316 µM): 50 nM
IC50 (second compound 0.1 µM): 48.8 nM
IC50 (second compound 0.316 µM): 57.1 nM
IC50 (second compound 1 µM): 59 nM
IC50 (second compound 3.16 µM): < 0.316 nM
IC50 (second compound 10 µM): < 0.316 nM
SMILES: CC(C)n1nc(-c2ccc3oc(N)nc3c2)c2c(N)ncnc21 + C#Cc1c(F)ccc2cc(O)cc(-c3ncc4c(N5CC6CCC(C5)N6)nc(OCC56CCCN5CC(F)C6)nc4c3F)c12
viability, T/C (second compound 0.0316 µM, first compound 0.000316 µM): 96.9%
viability, T/C (second compound 0.0316 µM, first compound 0.001 µM): 105%
viability, T/C (second compound 0.0316 µM, first compound 0.00316 µM): 105%
viability, T/C (second compound 0.0316 µM, first compound 0.01 µM): 89.2%
viability, T/C [1]: 63.5%
viability, T/C [2]: 30.3%
viability, T/C (second compound 0.1 µM, first compound 0.000316 µM): 99.6%
viability, T/C (second compound 0.1 µM, first compound 0.001 µM): 120%
viability, T/C (second compound 0.1 µM, first compound 0.00316 µM): 102%
viability, T/C (second compound 0.1 µM, first compound 0.01 µM): 96.5%
viability, T/C [7]: 62.4%
viability, T/C [8]: 29.3%
viability, T/C (second compound 0.316 µM, first compound 0.000316 µM): 95.2%
viability, T/C (second compound 0.316 µM, first compound 0.001 µM): 94.7%
viability, T/C (second compound 0.316 µM, first compound 0.00316 µM): 92.3%
viability, T/C (second compound 0.316 µM, first compound 0.01 µM): 96.5%
viability, T/C [13]: 67.5%
viability, T/C [14]: 33.4%
viability, T/C (second compound 1 µM, first compound 0.000316 µM): 68.8%
viability, T/C (second compound 1 µM, first compound 0.001 µM): 70.6%
viability, T/C (second compound 1 µM, first compound 0.00316 µM): 68.1%
viability, T/C (second compound 1 µM, first compound 0.01 µM): 83%
viability, T/C [19]: 70%
viability, T/C [20]: 32.4%
viability, T/C (second compound 3.16 µM, first compound 0.000316 µM): 35.4%
viability, T/C (second compound 3.16 µM, first compound 0.001 µM): 40.3%
viability, T/C (second compound 3.16 µM, first compound 0.00316 µM): 38.2%
viability, T/C (second compound 3.16 µM, first compound 0.01 µM): 44.5%
viability, T/C [25]: 52.3%
viability, T/C [26]: 28.5%
viability, T/C (second compound 10 µM, first compound 0.000316 µM): 15.9%
viability, T/C (second compound 10 µM, first compound 0.001 µM): 17.6%
viability, T/C (second compound 10 µM, first compound 0.00316 µM): 15.1%
viability, T/C (second compound 10 µM, first compound 0.01 µM): 19.3%
viability, T/C [31]: 19.5%
viability, T/C [32]: 8.39%

IC50 (second compound 0.0316 µM): 1170 nM
IC50 (second compound 0.1 µM): 1620 nM
IC50 (second compound 0.316 µM): 1190 nM
IC50 (second compound 1 µM): 472 nM
IC50 (second compound 3.16 µM): < 31.6 nM
IC50 (second compound 10 µM): < 31.6 nM
SMILES: CC(Nc1ccc2c(c1)OCCn1cc(N3C(=O)OCC3C(F)F)nc1-2)C(N)=O (stereo unspecified) + C#Cc1c(F)ccc2cc(O)cc(-c3ncc4c(N5CC6CCC(C5)N6)nc(OCC56CCCN5CC(F)C6)nc4c3F)c12
viability, T/C [1]: 84.4%
viability, T/C [2]: 93.5%
viability, T/C [3]: 63.5%
viability, T/C [4]: 50.1%
viability, T/C [5]: 47.6%
viability, T/C [6]: 29.1%
viability, T/C [7]: 90.3%
viability, T/C [8]: 86.2%
viability, T/C [9]: 69.5%
viability, T/C [10]: 56%
viability, T/C [11]: 42.5%
viability, T/C [12]: 28.2%
viability, T/C [13]: 84.9%
viability, T/C [14]: 86.7%
viability, T/C [15]: 65.3%
viability, T/C [16]: 53.2%
viability, T/C [17]: 38.5%
viability, T/C [18]: 28.4%
viability, T/C [19]: 71.6%
viability, T/C [20]: 62%
viability, T/C [21]: 50.9%
viability, T/C [22]: 46.1%
viability, T/C [23]: 34.3%
viability, T/C [24]: 23.2%
viability, T/C [25]: 33.2%
viability, T/C [26]: 26.4%
viability, T/C [27]: 26.5%
viability, T/C [28]: 26.9%
viability, T/C [29]: 22.4%
viability, T/C [30]: 12.8%
viability, T/C [31]: 16.3%
viability, T/C [32]: 15.2%
viability, T/C [33]: 11.7%
viability, T/C [34]: 6.87%
viability, T/C [35]: 3.76%
viability, T/C [36]: 1.56%
